The text below walks through data of patent US20050261478A1, “Compositions and methods for regulating lymphocyte activation” (XCYTE Therapies, Inc., priority 1998, published 2005).

In one assay the test system is CD4^+ T cells. Briefly: Proliferation of purified T cell subsets with immobilized antibodies. Conditions: antibodies immobilized on microtiter plates, 4 days. It is filed as cell-based, human. The procedure:
(§1) T cells were isolated from peripheral blood by centrifugation on “FICOLL”, followed by separation into CD4^+ or CD8^+ subsets by depletion of monocytes, B cells, NK cells, and either CD4 or CD8 cells. Cell depletion was performed using mAbs to CD14, CD20, CD11b, and CD8 or CD4 followed by removal of antibody-bound cells using magnetic beads coated with anti-mouse IgG CD4^+ or CD8^+ T cells were >95% pure after the depletion step when analyzed by flow cytometry. Cells were cultured in antibody-coated microtiter plates at 5×10^4 for 4 days, and proliferation was measured by incorporation of ^3H-thymidine for the final 12 hours of culture. Microtiter plates contained immobilized antibodies as indicated, including the control, nonbinding L20 antibody in some wells to equalize the total protein concentration for immobilization. Antibodies were immobilized by incubation at 10 μg/ml each for 18 hr at 37° C., followed by removal of unbound protein by extensive washing.

In another assay the test system is CD8^+ T cells. Described as above. Format: cell-based, human. Conditions: antibodies immobilized on microtiter plates, 4 days. The procedure: as §1
The target in a further assay is T1, CD3ε δIg (Homo sapiens, UniProt P04234+P07766).
T1 construct: made in house; host or cells: COS-7 (transient, DEAE-dextran); purified on protein A-Sepharose
Description: BIACORE binding of CDR3 peptides. To be noted: peptides cyclized and characterized as pools of 3-5, CD3ε δhuIg impure mixture, nd = non detectable binding, read-out: Binding Affinity, CD3ε δIg. The procedure:
(§2) Peptides corresponding to the entire CDR3 regions of anti-CD3 and […] mAbs were synthesized, and Tyr/Phe-Cysteine residues were added to both amino and carboxyl termini. Modifications of peptides were made by eliminating one amino acid of the CDR3 region at a time from the terminus. Peptide synthesis was carried out on solid phase by using Fmoc chemistry (HBTU/DIEA activation and TFA cleavage). Crude peptides were combined in a batch of 3-5 peptides and cyclized by air oxidation at pH 8.5. Crude cyclic peptides were purified on a reverse phase HPLC, lyophilized and characterized by analytical HPLC and mass spectroscopy.
(§3) BIACORE uses surface plasmon resonance (SPR) which occurs when surface plasmon waves are excited at a metal/liquid interface. Light is directed at, and reflected due to bimolecular interactions between analyte (in solution) and ligand (immobilized). CD3εδhuIg, CD3εεhuIg and CD28huIg were covalently immobilized on a carboxymethy dextran chip using EDC/NHS chemistry followed by blocking with ethanol amine. Peptides were dissolved in HBS buffer at pH 7.2 with or without 1% DMSO, and were allowed to pass over these fusion protein-immobilized surfaces. Non-specific binding was substrated by passing these peptides over a controlled surface prepared by immobilizing EDC/NHS alone followed by ethanolamine.
In general terms: SPR reads the build-up and loss of mass on a sensor chip optically.

A further assay has as its target T2, CD28Ig (Homo sapiens, UniProt P10747).
T2 construct: human Ig (huIg) fusion partner
Briefly: BIACORE binding of CDR3 peptides. Conditions: peptides cyclized and characterized as pools of 3-5, nd = non detectable binding, read-out: Binding Affinity, CD28Ig. The procedure: as §2, §3

The test system of a further assay is G19-4 anti-CD3 mAb. Description: ELISA of CD3-Ig fusion proteins captured by immobilized anti-CD3 mAb. To be noted: up to 100 μg/ml fusion protein. It is filed as binding. The source says: Transient expression in COS-7 cells was used to generate different CD3-Ig fusion proteins. The plasmids phCD3ε-Ig, and phCD3γ-Ig were transfected individually or in combinations of phCD3ε-Ig+phCD3δ-Ig and phCD3ε-Ig+phCD3γ-Ig into COS-7 by the DEAE-dextran method. Transfected cells were maintained in medium supplemented with a low concentration, 0.5%, FBS and insulin. Spent media were collected in three-day intervals up to three weeks post transfection. Fusion proteins were then purified from spent media by protein A-Sepharose chromatography. Fusion protein expression was confirmed by SDS-PAGE and ELISA using anti-CD3 mAb.
CD3-Ig fusion proteins were characterized by ELISA using a number of anti-CD3 mAbs including G19-4, OKT3, BC3, and 64.1 Anti-CD3 mAbs were immobilized to capture CD3-Ig. An antibody-horseradish peroxidase conjugate specific against human IgG […] was used to detect the binding of CD3-Ig to anti-CD3 mAbs. Like the control CD4-Ig, no binding of CD3δ-Ig to G19-4 was detectable even at 100 μg/ml of the fusion protein (FIG. 20). […] and […] saturated at 4 μg/ml and 20 μg/ml in this assay, respectively. […] In addition, binding affinities of the CD3-Ig fusion proteins to different anti-CD3 antibodies were measured by BIACORE, and the results are shown in Table IV. […]

Bridge positions count the residues as written; N and C are the ends. Peptide text beside a SMILES is read from it.

T1 sequence (P07766 23-126): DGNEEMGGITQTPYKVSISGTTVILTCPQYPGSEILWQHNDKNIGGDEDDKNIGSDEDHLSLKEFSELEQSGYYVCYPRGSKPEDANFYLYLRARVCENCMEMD
T1 sequence (P04234 22-100): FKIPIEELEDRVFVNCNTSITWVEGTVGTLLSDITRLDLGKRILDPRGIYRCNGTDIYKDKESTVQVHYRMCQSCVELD
T2 sequence (P10747 19-152 limits assumed): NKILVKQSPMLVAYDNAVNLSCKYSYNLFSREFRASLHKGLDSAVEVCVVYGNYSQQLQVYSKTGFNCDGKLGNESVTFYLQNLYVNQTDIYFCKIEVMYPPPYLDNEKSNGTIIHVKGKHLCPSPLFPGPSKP

Take “OKT-3: MAb anti-CD3, obtained from ATCC (ATCC CRL-8001)”: the “Proliferation of CD4^+ T cells” value in the assay on CD4^+ T cells is recorded as “minimal”. Moreover, in the assay with CD8^+ T cells, the “Proliferation of CD8^+ T cells” value was “minimal”.

Take `NCCCC[C@@H]1NC(=O)[C@H](Cc2c[nH]c3ccccc23)NC(=O)[C@H](CC(=O)O)NC(=O)[C@H](Cc2ccccc2)NC(=O)[C@@H](NC(=O)[C@@H](N)Cc2ccc(O)cc2)CSSC[C@@H](C(=O)N[C@@H](Cc2ccc(O)cc2)C(=O)O)NC(=O)[C@H](CC(N)=O)NC1=O` [YCFDWKNCY (SEQ ID NO:80)] (H-YCFDWKNCY-OH; disulfide 2-8; N-terminus and C-terminus assumed): at CD3ε δIg, the Kd came out at 0.5 µM.

For the molecule `N[C@@H](Cc1ccc(O)cc1)C(=O)N[C@H]1CSSC[C@@H](C(=O)N[C@@H](Cc2ccc(O)cc2)C(=O)O)NC(=O)CNC(=O)[C@H](CC(=O)O)NC(=O)[C@H](Cc2ccc(O)cc2)NC(=O)[C@H](CC(=O)O)NC(=O)[C@H](Cc2ccc(O)cc2)NC1=O` [YCYDYDGCY (SEQ ID NO:75)] (H-YCYDYDGCY-OH; disulfide 2-8; N-terminus and C-terminus assumed), the Kd on CD3ε δIg turned out to be 10 µM.

With “YCRSAYYDYDGIAYCW [cyclized peptide derived from CDR3 region of an anti-CD3 or anti-CD28 mAb]”, the results for the Kd at CD3ε δIg and on CD28Ig were 7 µM and 166 µM, respectively.

Regarding “CD3ε-Ig: CD3ε extracellular domain fused to human IgG1 hinge-CH2-CH3”, the “Binding of CD3-Ig fusion protein to G19-4” value in the assay on G19-4 anti-CD3 mAb is “detectable”.

Consider “YCARDSDWYFDVCW [cyclized peptide derived from CDR3 region of an anti-CD3 or anti-CD28 mAb]”, for which, at CD3ε δIg, the Kd turned out to be 50 µM.

Turning to “YCGYSYYYSMDYCW [cyclized peptide derived from CDR3 region of an anti-CD3 or anti-CD28 mAb]”, on CD28Ig, the Kd turned out to be 1 µM.

B1: CD3γ-Ig: CD3γ extracellular domain fused to human IgG1 hinge-CH2-CH3 (protein)
chain: QSIKGNHLVKVYDYQEDGSVLLTCDAEAKNITWFKDGKMIGFLTEDKKKWNLGSNAKDPRGMYQCKGSQNKSKPLQVYYRMCQNCIELNAATIS
modifications: left off: a dimerising Fc or GST
notes: CD3γ extracellular domain fused to human IgG1 hinge-CH2-CH3
Consider B1, for which the “Binding of CD3-Ig fusion protein to G19-4” value with G19-4 anti-CD3 mAb is “detectable”.
